From publication PMC9407656 (Proceedings of the National Academy of Sciences of the …, 2022)
Where “and” joins values, the source holds several entries; their conditions need not be identical. Identical values can stand only once. Like-named read-outs stand apart in the source and are kept apart here.

How the values were obtained:
[1] = molecular target: T1, B. malayi AVR-14B GluCl (Brugia malayi, UniProt A0A0K0J2Q9); test: Two-electrode voltage-clamp on Xenopus laevis oocytes expressing Bma-AVR-14B; details: for direct activation as agonist (in words): 0.3 to 100 µM; for agonist activity (in words): tested at 1 mM; for activation at 1000 µM / activation at 10000 µM / L-glutamate-mediated current response (mean ± SEM): normalized to 10 mM L-glutamate
T1 sequence (A0A0K0J2Q9 19-427): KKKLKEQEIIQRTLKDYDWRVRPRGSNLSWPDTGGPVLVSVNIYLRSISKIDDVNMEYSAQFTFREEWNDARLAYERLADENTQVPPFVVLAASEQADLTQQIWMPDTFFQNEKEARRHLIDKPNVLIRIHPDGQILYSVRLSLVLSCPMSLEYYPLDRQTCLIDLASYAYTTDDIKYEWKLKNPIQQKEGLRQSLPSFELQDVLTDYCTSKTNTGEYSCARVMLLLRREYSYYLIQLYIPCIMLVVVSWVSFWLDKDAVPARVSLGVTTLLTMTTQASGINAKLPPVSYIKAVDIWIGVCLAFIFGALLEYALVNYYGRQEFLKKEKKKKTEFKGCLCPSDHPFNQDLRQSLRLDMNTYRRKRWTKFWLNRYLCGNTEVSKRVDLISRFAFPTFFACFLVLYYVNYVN

[2] = test system: B. malayi; details: cited from earlier work; for gradual recovery from the paralytic effects: treated worms
[3] = test system: adult B. malayi worms; test: Adult B. malayi worm motility; assay type: cell-based, Brugia malayi; details: for recovery from the motility paralysis: treated adult worms; for pIC50, inhibition of motility / IC50: 24 h exposure; for IC50: read-out: IC50, inhibition of motility
[4] = test system: H. contortus AVR-14B/GluClα3B; details: SI table ref 3, cited from earlier work
[5] = test system: C. oncophora IVS AVR-14/GluClα3; details: IVM-sensitive strain; SI table ref 5; cited from earlier work
[6] = test system: C. oncophora IVR AVR-14/GluClα3; details: IVM-resistant strain; SI table ref 5; cited from earlier work
[7] = test system: D. immitis AVR-14B/GluClα3B; details: cited from earlier work
[8] = test system: C. elegans AVR-14B/GluClα3B; details: cited from earlier work
[9] = coapplied with 30 mM L-glutamate
[10] = read-out: IC50(female), motility, female B. malayi
[11] = peak current normalized to 30 mM L-glutamate

Compound: picrotoxin [PTX]
- inhibition of the glutamate response ([1]; 100 µM, 30 mM L-glutamate): failed to completely block
- direct activation as agonist (in words) [1]: failed to produce direct activation
- nH, inhibition of L-glutamate-gated current [1, 9]: −1.2 ± 0.6
- pIC50, inhibition of L-glutamate-gated current [1, 9]: 4.5 ± 0.2
- IC50 ([1]; read-out: IC50, inhibition of L-glutamate-gated current, coapplied with 30 mM L-glutamate): 33.1 µM

Compound: N[C@@H](CC(=O)O)C(=O)O [L-aspartate]
- agonist activity (in words) [1]: failed to induce any measurable channel activity

Compound: NCC(=O)O [Glycine, glycine]
- agonist activity (in words) [1]: inactive

Compound: c1ccc([C@H]2CN3CCSC3=N2)cc1 [levamisole]
- IC50 [2, 10]: 0.01 µM
- gradual recovery from the paralytic effects [2]: 3 to 4 h

Compound: C/C(=C\C=C\[C@]1(C)[C@@H](O)CC[C@@]2(C)[C@H]1CC[C@H]1Cc3c([nH]c4cc5c(cc34)C3=CC(C)(C)OC(C)(C)[C@H]3C5)[C@@]12C)C(=O)O [NA, Nodulisporic acid]
- EC50 ([1]; EC50, direct activation (agonist), normalized to 30 mM L-glutamate): 2.7 µM
- nH, potentiation (PAM) of L-glutamate response ([1]; in the presence of 30 µM L-glutamate): 0.8 ± 0.4
- increase in the mean AUC response of L-glutamate ([1]; in the presence of NA): approximately sevenfold increase
- EC50 ([1]; pEC50, direct activation, peak current normalized to 30 mM L-glutamate): 2.51 µM
- nH (Hill coefficient), direct activation [1, 11]: 1.6 ± 0.8
- exposure required to produce a reduction in worm motility similar to IVM ([3]; adult worms): > 3 days
- recovery from the motility paralysis [3]: do not show any sign of recovery

Compound: Cc1onc(O)c1CC(N)C(=O)O (stereo not drawn) [AMPA, α-amino-3-hydroxy-5-methyl-4-isoxazolepropionic acid]
- agonist activity (in words) [1]: failed to induce any measurable channel activity

Compound: C=C(C)[C@H]1CN[C@H](C(=O)O)[C@H]1CC(=O)O [kainate]
- agonist activity (in words) [1]: failed to induce any measurable channel activity

Compound: N#Cc1nn(-c2c(Cl)cc(C(F)(F)F)cc2Cl)c(N)c1[S+]([O-])C(F)(F)F (stereo not shown) [FIP, fipronil]
- direct activation as agonist (in words) [1]: failed to produce direct activation
- IC50 ([1]; IC50, inhibition of L-glutamate-gated current, coapplied with 30 mM L-glutamate): 1.8 µM
- nH, inhibition of L-glutamate-gated current [1, 9]: −1.3 ± 0.4
- IC50 ([1]; pIC50, inhibition of L-glutamate-gated current, coapplied with 30 mM L-glutamate): 2 µM
- inhibition at 100 µM ([1]; read-out: inhibition of the glutamate response): ~95%

Compound: N[C@@H](CCC(=O)O)C(=O)O [L-glutamate]
- time constant of desensitization (τ) ([1]; 3 µM L-glutamate): 1.3 ± 0.3 s
- reversal potential (Erev) of glutamate-gated currents ([1]; 1 mM L-glutamate, −80 to +20 mV): −28.9 ± 2.9 mV
- time constant of desensitization (τ) ([1]; 30 mM L-glutamate): 0.6 ± 0.1 s
- nH (Hill coefficient), direct activation [1, 11]: 0.8 ± 0.3
- activation at 1000 µM ([1]; read-out: L-glutamate-mediated current response (mean ± SEM), 1 mM L-glutamate alone, 0.01 nM IVM experiment): 54.3 ± 9.2%
- activation at 1000 µM ([1]; read-out: L-glutamate-mediated current response (mean ± SEM), 1 mM L-glutamate alone, 0.1 nM IVM experiment): 52.8 ± 3.3%
- activation at 10000 µM ([1]; read-out: L-glutamate-mediated current response (mean ± SEM), 10 mM L-glutamate alone, 0.01 nM IVM experiment): 100%
- activation at 10000 µM ([1]; read-out: L-glutamate-mediated current response (mean ± SEM), 10 mM L-glutamate alone, 0.1 nM IVM experiment): 100%
- EC50 [4]: 27.6 µM
- EC50 [5]: 29.7 µM
- EC50 [6]: 96.1 µM
- EC50 [7]: ~1000 µM
- EC50 [8]: 2200 µM

Compound: N[C@H](C(=O)O)c1cc(O)no1 [ibotenate]
- normalized current response to agonist (mean ± SEM) ([1]; agonist 1 mM, normalized to 1 mM L-glutamate response): 73.4 ± 2.5%

Compound: NCCCC(=O)O [GABA, γ-amino butyric acid]
- agonist activity (in words) [1]: inactive

Compound: CN[C@H](CC(=O)O)C(=O)O [NMDA, N-methyl-D-aspartic acid]
- agonist activity (in words) [1]: failed to induce any measurable channel activity

Compound: N[C@@H](Cn1oc(=O)[nH]c1=O)C(=O)O [quisqualate]
- agonist activity (in words) [1]: failed to induce any measurable channel activity

Compound: CCN(CC)C(=O)N1CCN(C)CC1 [DEC, diethylcarbamazine]
- IC50 ([2]; read-out: IC50, motility, B. malayi): 4.4 µM
- gradual recovery from the paralytic effects [2]: 3 to 4 h

Compound: CC(C)C[C@H]1C(=O)O[C@H](Cc2ccc(N3CCOCC3)cc2)C(=O)N(C)[C@@H](CC(C)C)C(=O)O[C@H](C)C(=O)N(C)[C@@H](CC(C)C)C(=O)O[C@H](Cc2ccc(N3CCOCC3)cc2)C(=O)N(C)[C@@H](CC(C)C)C(=O)O[C@H](C)C(=O)N1C [emodepside]
- IC50 [2, 10]: 0.801 µM
- IC50 ([2]; read-out: IC50(male), motility, male B. malayi): 0.176 µM

Compound: CC[C@H](C)[C@H]1O[C@]2(CC[C@@H]1C)C[C@@H]1C[C@@H](C/C=C(\C)[C@@H](O[C@H]3C[C@H](OC)[C@@H](O[C@H]4C[C@H](OC)[C@@H](O)[C@H](C)O4)[C@H](C)O3)[C@@H](C)/C=C/C=C3\CO[C@@H]4[C@H](O)C(C)=C[C@@H](C(=O)O1)[C@]34O)O2 [IVM, ivermectin]
- direct activation of receptor (in words) ([1]; 1 pM IVM): did not activate the Bma-AVR-14B receptor directly
- effect on NA-mediated effects (in words) ([1]; 0.1 nM IVM, NA with 30 µM L-glutamate): eliminated the agonist as well as PAM effects of NA
- L-glutamate-mediated current response (mean ± SEM) ([1]; 100 µM L-glutamate in the presence of 0.1 nM IVM): 1.3 ± 0.3%
- L-glutamate-mediated current response (mean ± SEM) ([1]; 1 mM L-glutamate in the presence of 0.01 nM IVM): 34.2 ± 7.5%
- L-glutamate-mediated current response (mean ± SEM) ([1]; 1 mM L-glutamate in the presence of 0.1 nM IVM): 4.0 ± 0.6%
- L-glutamate-mediated current response (mean ± SEM) ([1]; 10 mM L-glutamate in the presence of 0.01 nM IVM): 70.3 ± 7.9%
- L-glutamate-mediated current response (mean ± SEM) ([1]; 10 mM L-glutamate in the presence of 0.1 nM IVM): 7.7 ± 0.7%
- nH (Hill coefficient), direct activation [1, 11]: 0.3 ± 0.1 and 0.3 ± 0.2
- pEC50, direct activation [1, 11]: 8.7 ± 1.2
- EC50 ([4]; read-out: estimated EC50): ~0.0001 µM
- EC50 [5]: 0.5 µM
- EC50 [6]: 1.3 µM
- pIC50, inhibition of motility ([3]; adult female worms): 5.9 ± 0.4
- pIC50, inhibition of motility ([3]; adult male worms): 4.9 ± 0.2
- IC50 ([3]; adult female worms): 1.1 µM
- IC50 ([3]; adult male worms): 11.6 µM
- recovery from the motility paralysis [3]: do not show any sign of recovery
